Activity calls are given as the source filed them. The rule behind the calls is not given here.
How the values were obtained:
[1] = system: Radical scavenging activity; experiment: Antioxidant activity assessed as DPPH radical scavenging activity after 30 mins; type: functional
Mus musculus [2] = experiment: Antidyslipidemic activity in chronic high-fat diet (2.5 w/w cholesterol, 0.5% w/w cholic acid, 10% w/w peanut oil) fed SKH-2 mouse assessed as decrease in LDL level in plasma at 56 umol/kg, ip bid for 21 days; type: functional; conditions: SKH-2, Plasma, 504 h
Mus musculus [3] = experiment: Effect on food intake in chronic high-fat diet (2.5 w/w cholesterol, 0.5% w/w cholic acid, 10% w/w peanut oil) fed SKH-2 mouse at 56 umol/kg, ip bid for 30 days; type: ADME, organism-based; conditions: in vivo, 720 h
Mus musculus [4] = experiment: Antidyslipidemic activity in chronic high-fat diet (2.5 w/w cholesterol, 0.5% w/w cholic acid, 10% w/w peanut oil) fed SKH-2 mouse assessed as decrease in total cholesterol level in plasma at 56 umol/kg, ip bid for 21 days; type: functional; conditions: SKH-2, Plasma, 504 h
Mus musculus [5] = experiment: Antidyslipidemic activity in chronic high-fat diet (2.5 w/w cholesterol, 0.5% w/w cholic acid, 10% w/w peanut oil) fed SKH-2 mouse assessed as increase in HDL level in plasma at 56 umol/kg, ip bid for 30 days measured on day 30 relative to control; type: functional
[6] = target: T1, Prostaglandin G/H synthase 1 (Bos taurus) (UniProt O62664); experiment: Inhibition of bovine COX-1 assessed as PGF2-alpha formation using arachidonic acid as substrate at 20 uM by enzyme immunoassay
T1 sequence (whole entry): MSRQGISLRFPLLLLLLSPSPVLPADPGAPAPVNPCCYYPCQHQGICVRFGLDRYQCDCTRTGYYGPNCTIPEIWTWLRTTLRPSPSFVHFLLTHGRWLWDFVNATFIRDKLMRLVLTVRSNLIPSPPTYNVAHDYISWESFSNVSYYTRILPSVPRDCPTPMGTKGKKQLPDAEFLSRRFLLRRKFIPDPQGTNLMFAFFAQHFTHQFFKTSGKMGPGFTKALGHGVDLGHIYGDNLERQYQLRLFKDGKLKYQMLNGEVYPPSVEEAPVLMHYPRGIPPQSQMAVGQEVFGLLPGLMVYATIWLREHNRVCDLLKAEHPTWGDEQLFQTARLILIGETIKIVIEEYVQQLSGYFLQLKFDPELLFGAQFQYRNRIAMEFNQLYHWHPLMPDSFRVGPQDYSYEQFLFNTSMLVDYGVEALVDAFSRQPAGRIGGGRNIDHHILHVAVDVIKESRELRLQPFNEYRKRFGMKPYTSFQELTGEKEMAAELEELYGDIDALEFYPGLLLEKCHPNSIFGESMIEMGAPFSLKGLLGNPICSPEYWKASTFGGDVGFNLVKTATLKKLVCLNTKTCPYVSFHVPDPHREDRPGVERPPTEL

Mus musculus [7] = experiment: Antidyslipidemic activity in chronic high-fat diet (2.5 w/w cholesterol, 0.5% w/w cholic acid, 10% w/w peanut oil) fed SKH-2 mouse assessed as increase in HDL level in plasma at 56 umol/kg, ip bid for 30 days measured on day 30 relative to day 0; type: functional
[8] = system: Radical scavenging activity; experiment: Antioxidant activity assessed as DPPH radical scavenging activity up to 50 uM measured within 15 mins; type: functional
[9] = Antioxidant activity in rat liver microsome membrane assessed as inhibition of lipid peroxidation after 45 mins by TBARS-based spectrophotometric assay; type: functional, microsomes
Mus musculus [10] = experiment: Effect on blood glucose level in chronic high-fat diet (2.5 w/w cholesterol, 0.5% w/w cholic acid, 10% w/w peanut oil) fed SKH-2 mouse at 56 umol/kg, ip bid for 30 days; type: ADME, organism-based; conditions: in vivo, 720 h
Mus musculus [11] = experiment: Effect on body weight in chronic high-fat diet (2.5 w/w cholesterol, 0.5% w/w cholic acid, 10% w/w peanut oil) fed SKH-2 mouse at 56 umol/kg, ip bid for 30 days; type: ADME, organism-based; conditions: in vivo, 720 h
Squalene synthase = target: T2, Squalene synthase (Rattus norvegicus, UniProt Q02769); experiment: (§1) Inhibition of squalene synthase in rat liver microsomes assessed as decrease in conversion of [3H]FPP to squalene
T2 sequence (Q02769 whole entry): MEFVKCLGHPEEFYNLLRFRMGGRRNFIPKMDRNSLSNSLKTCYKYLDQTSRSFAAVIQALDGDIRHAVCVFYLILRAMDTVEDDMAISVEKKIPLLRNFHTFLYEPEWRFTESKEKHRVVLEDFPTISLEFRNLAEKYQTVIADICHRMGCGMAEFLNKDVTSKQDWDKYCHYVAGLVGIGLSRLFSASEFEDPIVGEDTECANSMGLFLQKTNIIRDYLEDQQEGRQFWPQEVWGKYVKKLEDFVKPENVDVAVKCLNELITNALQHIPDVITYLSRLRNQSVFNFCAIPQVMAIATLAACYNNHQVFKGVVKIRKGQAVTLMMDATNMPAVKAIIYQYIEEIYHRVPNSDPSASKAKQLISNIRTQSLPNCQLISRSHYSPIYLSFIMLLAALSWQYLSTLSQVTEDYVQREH

[12] = target: T3, Squalene synthase (Rattus norvegicus) (UniProt Q02769); experiment: as §1
T3 sequence (whole entry): T2 sequence (Q02769 whole entry)

Mus musculus [13] = experiment: Antidyslipidemic activity in chronic high-fat diet (2.5 w/w cholesterol, 0.5% w/w cholic acid, 10% w/w peanut oil) fed SKH-2 mouse assessed as HDL/LDL ratio in plasma at 56 umol/kg, ip bid for 30 days measured on day 30 (reference value: 0.2 no unit); type: functional

SMILES: CN1CC(O)(c2ccc3c(c2)Nc2ccccc2S3)Sc2ccccc21 (centres undefined)
- IC50 [1]: 77 µM
- inhibition in vivo at 56 µmol/kg (Mus musculus [2]): 80%
- Activity (Mus musculus [3]): Non-toxic
- inhibition in vivo at 56 µmol/kg (Mus musculus [4]): 48%
- Activity (Mus musculus [5]): 32%
- inhibition [6]: 67%
- Activity (Mus musculus [7]): 100%
- Activity [8]: Active
- IC50 [9]: 0.98 µM
- Activity (Mus musculus [10]): Non-toxic
- Activity (Mus musculus [11]): Non-toxic
- IC50 (Squalene synthase): 3.6 µM
- inhibition [12]: Dose-dependent effect
- Ratio (Mus musculus [13]): 1.3
